“Also recorded” adds a separate entry of the source.
Key:
Type in all cases: in vivo, mouse (BDF1)
male fertility [1] = test: Effect on fertility in male mice
Experimental: (§1) The compounds of the invention are also effective in reducing or inhibiting male fertility, wherein administration of a compound of the invention to a male mammal is effective to reduce the potency of the male's semen, thereby reducing or blocking fertilization. Triptolide succinate (YM-262) was tested for inhibition of fertility in male BDF1 mice, according to protocols described in Example 15. The compound was administered intraperitoneally (IP) in a saline solution, using a cycle of daily administration for 5 days followed by a two day cessation of treatment. Dose levels were 0.04 or 0.13 mg/kg/day. The cycle was repeated for 5 weeks before evaluation of physiological effects (testis weight) and reproductive performance.
The effect of the compound on fertility was tested with groups of five male mice treated according to the same schedule. Each male was housed with two females starting on day 32, after termination of YM-262 treatment.
Triptolide succinate (YM-262) was tested for fertility control in male BDF1 mice, using a cycle of daily administration for 5 days followed by a two day cessation of treatment. The cycle was repeated for 5 weeks, with dosing on days 0-4, 7-11, 14-18, 21-25 and 28-32 before evaluation of physiological effects and reproductive performance.
A dosing solution of YM-262 was prepared once a week from a stock solution in saline at 1.0 mg/ml and stored at 4° C. […]

male fertility [2] = test: Effect on fertility in male mice; details: for delay of time from cohabitation to birth / increase in time from cohabitation to birth: vs control
testis weight = test: Effect on testis weight in male mice; design: decrease in testis weight: dose or concentration left out as unconfirmed; details: 5 days on/2 days off, 5 weeks, vs saline control
Experimental: as §1, with “Dose levels were 0.04 or 0.13 mg/kg/day.” left out
Triptolide succinate (YM-262) was tested for fertility control in male BDF1 mice, using a cycle of daily administration for 5 days followed by a two day cessation of treatment. The cycle was repeated for 5 weeks, with dosing on days 0-4, 7-11, 14-18, 21-25 and 28-32 before evaluation of physiological effects and reproductive performance. […]
On day 32, five to six mice from each dosing group were sacrificed, and the testes were removed and stored in formalin for histological analysis and weight determination. The average of both testes was calculated for each mouse, and the mean and standard error of the mean (S.E.) were determined.

[3] = 0.03 mg/kg/day (so in the source) i.p.
[4] = 0.1 mg/kg/day (so in the source) i.p.

CC(C)C12OC1C1OC13C1(C)CCC4=C(COC4=O)C1CC1OC13C2OC(=O)CCC(=O)O (centres unmarked) [YM-262, Triptolide Succinate]
delay of recovery of fertility after termination of therapy (male fertility [1]; 0.13 mg/kg/day i.p. over 32 days): 21 days
reversibility of antifertility effect (male fertility [1]; after cessation of administration): the antifertility effect was reversible; also recorded: the control of fertility was reversible
time from beginning of cohabitation to birth of litters (male fertility [2]; [3]): 28 days
delay of time from cohabitation to birth (male fertility [2]; [3]): 17%
period of unproductive mating (male fertility [2]; 0.04 mg/kg/day i.p.): approximately four-day period of unproductive mating
time from beginning of cohabitation to birth of litters (male fertility [2]; 0.04 mg/kg/day i.p.): 28 days
delay of time from cohabitation to birth (male fertility [2]; 0.04 mg/kg/day i.p.): 17%
time from cohabitation to birth (male fertility [2]; [4]): 45 days
delay of recovery of fertility after termination of therapy (male fertility [2]; 0.1 mg/kg/day (so in the source) i.p. over 32 days): 21 days
increase in time from cohabitation to birth (male fertility [2]; [4]): 88%
time from cohabitation to birth (male fertility [2]; 0.13 mg/kg/day i.p.): 45 days
increase in time from cohabitation to birth (male fertility [2]; 0.13 mg/kg/day i.p.): 88%
reduction in testis weight (testis weight; 0.13 mg/kg/day i.p.): approximately 13%
decrease in testis weight (testis weight; (as printed) i.p.): approximately 13%

— patent US5962516A, “Immunosuppressive compounds and methods” (priority 1999, dated 1999)
